Reference: patent US20090054507A1, “CONTROL OF MALIGNANT CELLS BY KINASE INHIBITION” (CLEVELAND STATE UNIVERSITY, priority 2006, published 2009)

Columns and labels:
MEG-01 xenografts = experiment: Tail-bleeding assay in MEG-01 xenograft mice; format: in vivo; conditions: DMAT treated xenograft mice vs normal mice or control mice
Experimental: At the end of the trial, tail-bleeding times assay was performed and blood was collected for blood counts from live and anesthetized mice. After these experiments were completed mice were sacrificed and tumors and organs were collected. Samples were fixed in formalin for further processing.
Tail-bleeding assay. Tail-bleeding times are important to investigate whether the platelets could establish hemostasis in vivo. Platelet aggregation and clot retraction in response to physiologic agonists adenosine diphosphate (ADP), epinephrine, and thrombin will affect tail-bleeding times.
Normal tail-bleeding times are an average of 1.5-2 minutes in C57BL mouse strain.
Pre-warm tubes of saline (PBS) at 37° C. and maintained at this temperature during the measurements were used. Inhalation of isoflurane vapor or, alternatively, intraperitoneal injection of avertin was used to induce general anesthesia. Using a sharp new razor or scalpel blade, tails were cut exactly 0.5 cm of the distal tip of the tail of the adult mouse and immediately inserted into the pre-warmed tube of saline. A stopclock was started at this time. The tail was hold gently, near its base, to avoid a “tourniquet effect.” Venous blood flowing into the tube can be observed and can it can be detected when this bleeding stops. The stopclock provides an accurate bleeding time.

MEG-01 tumors = experiment: Hematoxylin & eosin staining of MEG-01 tumors; format: in vivo, mice; parameters: dose or concentration left out as unconfirmed; conditions: DMAT treated vs control
Experimental: Hematoxylin & eosin staining of tumor tissue and organs. After euthanasia with CO2, mice were supposed to necropsy. Tumors were collected from under the skin from both flanks and were measured for the last time and then fixed in formalin fixative. Spleen, liver, kidney, brain, lungs and legs were collected and fixed. Spleens were also measured (as length, […]). Fresh tissue was immersed immediately into liquid nitrogen and kept frozen at −80° C. Fixed tissue was embedded in paraffin and next processed for H&E (the basic dye hematoxylin, and the alcohol-based synthetic material, eosin) by the Cleveland Clinic Histology Core facility. Sections (4-μm thick) were stained with hematoxylin and eosin and evaluated for pathologic changes in a blinded fashion. H&E staining gives morphological information (vascularization, normal proliferating tissue, necrosis and apoptosis of the tissue).

WM-164 cells = experiment: Proliferation assay in vitro, WM-164; format: cell-based, human; conditions: for cell counts: four days
From the text: Viability (proliferation) assay, Trypan blue exclusion. Cells were counted using a Neubauer hemacytometer.

SW-480 xenografts = experiment: In vivo therapy of SW-480 xenografts, tumor volume; parameters: species or system mice
From the text: Creation of the xenografts MCF-7, SW-480 and WM-164. Immunodeficient male and female athymic nude nu/nu mice were used, provided and housed by Dr. Lindner, DJ from Taussig Cancer Center, Cleveland Clinic and Case Western Reserve University. Mice were checked every day. Mice were housed in filtered air flow cabinets with autoclaved bedding at a density of 5 mice/cage. They were fed autoclaved Purina Lab Rodent Chow® 5010 and HCl-acidified distilled water ad libitum and were placed in rooms with controlled temperature, humidity and 12-hr light-dark cycles. Procedures involving animals and their care were conducted in conformity with the institutional guidelines that are in compliance with national and international laws and policies (EEC Council Directive 86/609, OJL 358, Dec. 1, 1987, and the National Institutes of Health Guide for the Care and Use of Laboratory, Animals, NIH Publication 85-23, 1985).
For engraftment, cells in cell culture media were injected. […] Cells were counted with a hemacytometer using Trypan blue (only live cells were counted). […]
In vivo therapy with DMAT of SW-480 xenografts. […] Tumor diameters were measured using a caliper and tumor volume was calculated using the prolate-spheroid formula. […]

MEG-01 cells = experiment: Annexin V-FITC and PI apoptosis assay, MEG-01; format: cell-based, human
Experimental: Flow cytometric analysis. Cells were analyzed using a FACSCalibur flow cytofluorometer (Becton-Dickinson), with CellQuestPro ver. 3.3 software. The data was further analyzed with FlowJo ver. 6.2, and WinMDI 2.8 software. Proper gating was performed to characterize each cell population (MEG-01 cells and platelets). The population that corresponds to platelets (small, granulated particles), is PI negative because thrombocytes are anucleated cells (only the viable cells were considered) and were distinguished by their capacity to become activated, undergoing shape change in response to agonist and to show phosphatidylserine (PS) exposure when activated. Platelets were further separated from the megakaryocytic cells, by differential centrifugation, considering the size difference between these cell populations (1-5 μm for platelets and 35-150 μm for megakaryocytic cell line MEG-01) and analyzed separately. Voltage and channels settings were adjusted accordingly. Analyzed values were obtained with WinMDI ver. 2.8.
(§1) Apoptosis Assays using Flow Cytometry with Annexin V-FITC and propidium iodide (PI). For induction of typical apoptosis, cells were grown in the presence of 1 μM staurosporine (Sigma-Aldrich) for 6 hours. The staurosporine treated cells were stained as follows: control 1 with PI, control 2 with Annexin V-FITC and control 3 both PI and Annexin V-FITC in order to have the brightest controls for compensation and proper collection of the flow cytometry data. Cell necrosis was induced by heat shock (65° C. for 30 minutes). The stained control, both PI and Annexin V-FITC labeled, was then used as the reference in establishing the level of apoptosis induced by the treatments. Data was collected on logarithmic modes, two-colors. Annexin V-FITC corresponds to FL1 H channel, and PI to FL3H or FL2H channels.
(§2) Annexin V-FITC and PI apoptosis assay staining protocol. Apoptosis Annexin V-FITC and PI kit from BD Biosciences, CA, USA, was used. 10^5-10^6 cells were stained with 50 μg/ml PI and with 0.5 μg/ml FITC-labeled Annexin V using the staining protocol provided by the supplier. Samples were then analyzed immediately by flow cytometry.

MCF-7 cells = experiment: Annexin V apoptosis/necrosis assay, MCF-7; format: cell-based, human
Experimental: as §1, §2

CN(C)c1nc2c(Br)c(Br)c(Br)c(Br)c2[nH]1 [DMAT, 2-dimethylamino-4,5,6,7-tetrabromo-1H-benzimidazole]
tail bleeding times (MEG-01 xenografts): in certain instances, longer | apoptotic-necrotic areas in tumors (hematoxylin and eosin) (MEG-01 tumors): significantly greater areas of apoptosis and necrosis | sensitivity of proliferation to DMAT compared with MCF-7 and SW-480 (WM-164 cells): more resistant | cell counts (WM-164 cells; 10 μM DMAT): cell counts between those of the control and those of the WM-164 cells treated with 20 μM | cell counts (WM-164 cells; 20 μM DMAT): lowest cell counts | tumor volume (SW-480 xenografts; DMAT 40 mg/kg (in DMSO) per day, thirteen days, control about 260 to about 1800 mm^3): only a minor increase in tumor volume | response of xenograft tumors to treatment (summary) (SW-480 xenografts; small tumors remained at the end of the treatment): significant reduction in tumor volume | cytotoxicity (necrosis) in MEG-01 cells (MEG-01 cells): without being cytotoxic | level of necrotic cells (MEG-01 cells; 20 μM DMAT, 24 hours, control untreated 0.87%): 0.39% | level of apoptotic cells (MEG-01 cells; 20 μM DMAT, 24 hours, control untreated 8.7%): 19% | dose and time dependence of induced apoptosis and phenotype change (MEG-01 cells; 24 to 96 hours): dose and time dependent | level of apoptotic cells (MCF-7 cells; 10 μM DMAT, 24 hours): 28.4% | level of necrotic cells (MCF-7 cells; 10 μM DMAT, 24 hours): 8.7% | level of apoptotic cells (MCF-7 cells; 20 μM DMAT): 49.0% | level of necrotic cells (MCF-7 cells; 20 μM DMAT): 7.8%
